Reference: US20150141523A1, “COMPOUNDS FOR USE IN THE TREATMENT OF AUTOIMMUNE INFLAMMATORY DISEASE” (Venantius Limited, priority 2012, published 2015)

What was measured:
[1] = system: IL-2 secretion from Jurkat T cells; test: IL-2 secretion from activated Jurkat T cells (ELISA); assay type: cell-based, human; details: for IL-2 [ ]pg/ml (1) / IL-2 % Control (1): experiment (1); for IL-2 % Control (1) / IL-2 % Control (2) / IL-2 % Control (3): relative to DMSO 0.1%; for IL-2 [ ]pg/ml (2) / IL-2 % Control (2): experiment (2); for IL-2 [ ]pg/ml (3) / IL-2 % Control (3): experiment (3)
Experimental: The T cell line Jurkat 6.1 (ATCC) was used. Cells were pre-treated for 30 min with 1 μM or 10 μM of the respective compound and then stimulated with plate-bound anti-CD3 (BD Pharmingen) and anti-CD28 (AnCell). DMSO was used as vehicle control. The immunosuppressive agent Cyclosporine A was used as a control for inhibition of IL-2 production. After 24 hs the supernatant was collected and IL-2 secretion was measured by ELISA.
Jurkat T cells were cultured in RMPI-1640 medium containing 10 % Foetal Bovine Serum, Penicillin/Streptomycin and L-Glutamine in T-75cm2 flasks at 37° C. and 5 % CO2. Cells were seeded into new culture flasks at a density of 1-3×10^5 cells per ml and maintained at a density of 0.5−1×10^6 cells per ml.
(§1) (A) Anti-TCR/CD28-mediated activation of Jurkat cells: Experiments involving anti-TCR/CD28-mediated activation of Jurkat T lymphocytes were carried out on 24-well cell culture plates. The plates were coated with a 1/100 dilution of rabbit anti-mouse IgG in sterile PBS (1×) and incubated overnight at 4OC. Unbound antibody was aspirated and the wells were gently rinsed with warm sterile PBS. The PBS was aspirated and the wells were coated with a 1/100 dilution of anti-TCR antibody (OKT-3) and a 1/200 dilution of anti-CD28 antibody (both antibodies pre-mixed prior to addition to the plates) in sterile PBS. The plates were then incubated for 1-2 hours at 37° C. Unbound antibody was aspirated and the wells were gently rinsed with warm PBS. The PBS was left on the plate until the Jurkat cells were ready to be added to the plate. The Jurkat cells were harvested from the T-75cm2 cell culture flasks and resuspended at a density of 0.5×10^6 cells per ml. The compounds were dissolved at a specified stock concentration (see results section) and diluted to the required concentration by adding the drug to the cell suspension. The cells were then pre-incubated with the compounds or with an equivalent volume of drug vehicle control (DMSO) for 30 minutes prior to adding the cell suspension to the antibody-coated plates. Cyclosporine A (1 μM) was used as a positive control to inhibit IL-2 production from activated T cells and was preincubated with the 6 cells as described above in parallel. The cells were then incubated on the plates with the acti-TCR/CD28 antibodies for 24 hours at 37° C. and 5% CO2 in a humidified atmosphere. After 24 hours, the cell suspension was removed from the plates and the cells were pelleted by centrifugation. The cell culture supernatant was saved and analysed for secreted IL-2 by ELISA. The cell pellet was saved and cell viability was measured using Acridine Orange/Ethidium Bromide cell viability staining solution.
(B) PHA/PMA-mediated activation of Jurkat cells Jurkat cells were resuspended at a concentration of 0.5×10^6 cells per ml and the Pharmatrin compounds at the desired concentration or an equivalent volume of drug vehicle control (DMSO) were added to the cells and incubated for 30 minutes. Cyclosporine A (1 ∝M) was used as a positive control to inhibit IL-2 production from activated T cells and was preincubated with the cells as described above in parallel. PHA and PMA were added to the cell suspension (10 ∝g/ml and 10 ng/ml respectively) and the cells were plated onto uncoated 24-well plates. The cells were incubated on the plates for 24 hours at 37° C. and 5 % CO2 in a humidified atmosphere. After 24 hours, the cell suspension was removed from the plates and the cells were pelleted by centrifugation. The cell culture supernatant was saved and analysed for secreted IL-2 by ELISA.
The cell culture supernatants were analysed for IL-2 by ELISA (96-well plate format) using the Human IL-2 ELISA kit from R&D Systems Europe. This assay was carried out using the standard protocol outlined by the company. Samples and standards (recombinant human IL-2 provided by R&D Systems) were analysed in triplicate. […]

Jurkat cells = test: Jurkat cell viability (Acridine Orange/Ethidium Bromide); assay type: cell-based
Experimental: as §1
The cell pellet was resuspended in 20 μl of Acridine Orange/Ethidium Bromide staining solution. A portion of this cell suspension was placed on a haemocytometer and analysed under a fluorescence microscope. […] The ratio of viable cells: non-viable cells were calculated for each activation time point/drug treatment.

Balb/C mice = test: 5% DSS-induced murine colitis model; assay type: in vivo, mouse; details: for inhibition of DAI in DSS-induced colitis: 5% DSS colitis (FIG. 9)
CD-1 mice = test: Methylated bovine serum albumin (mBSA) delayed-type hypersensitivity mouse paw swelling; assay type: in vivo; details: 10 mg/kg i.p.; mBSA challenge alone 107%
Experimental: CD-1 mice (25-35 gms) were anaesthetised with halothane and immunised intradermal (i.d.) with mBSA/Freunds complete adjuvant containing Mycobacterium butyricum (FCA(B)) emulsion at four sites (62.5 μg/25 μl at each site) on the shaved chest on day 1. The mBSA/FCA(B) is prepared by emulsifying equal volumes of mBSA and FCA(B) solutions (the mBSA solution was first prepared in sterile isotonic saline at a concentration of 5 mg/mL). On days 8 and 9, mice were dosed intraperitoneal (i.p.) with either 1% carboxymethylcellulose (CMC), CycA or a novel compound in 1% CMC. Two hours after the second i.p. dose (day 9), anaesthetised mice were challenged, by injecting mBSA in saline subcutaneous (s.c.) in the dorsal surface of the right hind paw and s.c. in the left hind paw with saline alone (20 μl each injection). 24 hours later, mice were sacrificed by cervical dislocation, and the swelling of each paw was measured in triplicate with a plethysmometer.
Paw swelling (% difference)={mBSA injected paw volume (mls)}−{saline injected paw volume (mls)}×100%
Saline Injected Paw Volume (mls)

O[C@@H]1c2ccccc2C[C@]1(Cc1ccccc1)C1=Cc2ccccc2C1 (mixture of isomers) [Compound 5, (R,S and SR)2-Benzyl-2,3-dihydro-1H,1′H-2,2′-biinden-1-ol]
IL2 release from Jurkat cells [1]: inhibited IL2 release | IL-2 [ ]pg/ml (1) ([1]; 0.3 uM): 32.00 pg/mL | IL-2 % Control (1) ([1]; 0.3 uM): 156.86% | IL-2 [ ]pg/ml (2) ([1]; 0.3 uM): 87.25 pg/mL | IL-2 % Control (2) ([1]; 0.3 uM): 133.61% | IL-2 [ ]pg/ml (3) ([1]; 0.3 uM): 164.41 pg/mL | IL-2 % Control (3) ([1]; 0.3 uM): 124.97% | IL-2 [ ]pg/ml (1) ([1]; 1 uM): 21.85 pg/mL | IL-2 % Control (1) ([1]; 1 uM): 107.11% | IL-2 [ ]pg/ml (2) ([1]; 1 uM): 64.65 pg/mL | IL-2 % Control (2) ([1]; 1 uM): 99.00% | IL-2 [ ]pg/ml (3) ([1]; 1 uM): 127.84 pg/mL | IL-2 % Control (3) ([1]; 1 uM): 97.18% | IL-2 [ ]pg/ml (1) ([1]; 3 uM): 10.90 pg/mL | IL-2 % Control (1) ([1]; 3 uM): 53.43% | IL-2 [ ]pg/ml (2) ([1]; 3 uM): 83.25 pg/mL | IL-2 % Control (2) ([1]; 3 uM): 60.20% | IL-2 [ ]pg/ml (3) ([1]; 3 uM): 97.38 pg/mL | IL-2 % Control (3) ([1]; 3 uM): 74.02% | IL-2 [ ]pg/ml (1) ([1]; 10 uM): 8.75 pg/mL | IL-2 % Control (1) ([1]; 10 uM): 42.89% | IL-2 [ ]pg/ml (2) ([1]; 10 uM): 63.80 pg/mL | IL-2 % Control (2) ([1]; 10 uM): 97.70% | IL-2 [ ]pg/ml (3) ([1]; 10 uM): 70.72 pg/mL | IL-2 % Control (3) ([1]; 10 uM): 53.76% | IL-2 [ ]pg/ml (1) ([1]; 30 uM): 16.25 pg/mL | IL-2 % Control (1) ([1]; 30 uM): 79.66% | IL-2 [ ]pg/ml (2) ([1]; 30 uM): 5.75 pg/mL | IL-2 % Control (2) ([1]; 30 uM): 8.81% | IL-2 [ ]pg/ml (3) ([1]; 30 uM): 6.69 pg/mL | IL-2 % Control (3) ([1]; 30 uM): 5.08% | IL-2 [ ]pg/ml (1) ([1]; 100 uM): -10.40 pg/mL | IL-2 % Control (1) ([1]; 100 uM): −50.98% | IL-2 [ ]pg/ml (2) ([1]; 100 uM): -13.05 pg/mL | IL-2 % Control (2) ([1]; 100 uM): −19.98% | IL-2 [ ]pg/ml (3) ([1]; 100 uM): 0.28 pg/mL | IL-2 % Control (3) ([1]; 100 uM): 0.21% | cell viability (Jurkat cells): without affecting cell viability | inhibition of DAI in DSS-induced colitis (Balb/C mice): only 6 caused a significant | mBSA paw swelling (CD-1 mice): 72%

O[C@H]1c2ccccc2C[C@]1(Cc1ccccc1)C1=Cc2ccccc2C1 (mixture of isomers) [Compound 6, (S,S and RR)2-Benzyl-2,3-dihydro-1H,1′H-2,2′-biinden-1-ol]
IL2 release from Jurkat cells [1]: inhibited IL2 release | IL-2 [ ]pg/ml (1) ([1]; 0.3 uM): 63.72 pg/mL | IL-2 % Control (1) ([1]; 0.3 uM): 87.26% | IL-2 [ ]pg/ml (2) ([1]; 0.3 uM): 74.50 pg/mL | IL-2 % Control (2) ([1]; 0.3 uM): 114.09% | IL-2 [ ]pg/ml (3) ([1]; 0.3 uM): 101.75 pg/mL | IL-2 % Control (3) ([1]; 0.3 uM): 77.34% | IL-2 [ ]pg/ml (1) ([1]; 1 uM): 58.72 pg/mL | IL-2 % Control (1) ([1]; 1 uM): 80.41% | IL-2 [ ]pg/ml (2) ([1]; 1 uM): 51.60 pg/mL | IL-2 % Control (2) ([1]; 1 uM): 79.02% | IL-2 [ ]pg/ml (3) ([1]; 1 uM): 112.44 pg/mL | IL-2 % Control (3) ([1]; 1 uM): 85.47% | IL-2 [ ]pg/ml (1) ([1]; 3 uM): 47.83 pg/mL | IL-2 % Control (1) ([1]; 3 uM): 65.50% | IL-2 [ ]pg/ml (2) ([1]; 3 uM): 29.15 pg/mL | IL-2 % Control (2) ([1]; 3 uM): 44.64% | IL-2 [ ]pg/ml (3) ([1]; 3 uM): 104.44 pg/mL | IL-2 % Control (3) ([1]; 3 uM): 79.39% | IL-2 [ ]pg/ml (1) ([1]; 10 uM): 27.72 pg/mL | IL-2 % Control (1) ([1]; 10 uM): 37.96% | IL-2 [ ]pg/ml (2) ([1]; 10 uM): 36.15 pg/mL | IL-2 % Control (2) ([1]; 10 uM): 55.36% | IL-2 [ ]pg/ml (3) ([1]; 10 uM): 75.19 pg/mL | IL-2 % Control (3) ([1]; 10 uM): 57.15% | IL-2 [ ]pg/ml (1) ([1]; 30 uM): 4.72 pg/mL | IL-2 % Control (1) ([1]; 30 uM): 6.47% | IL-2 [ ]pg/ml (2) ([1]; 30 uM): 47.60 pg/mL | IL-2 % Control (2) ([1]; 30 uM): 72.89% | IL-2 [ ]pg/ml (3) ([1]; 30 uM): 16.47 pg/mL | IL-2 % Control (3) ([1]; 30 uM): 12.52% | IL-2 [ ]pg/ml (1) ([1]; 100 uM): -10.11 pg/mL | IL-2 % Control (1) ([1]; 100 uM): −13.85% | IL-2 [ ]pg/ml (2) ([1]; 100 uM): -19.75 pg/mL | IL-2 % Control (2) ([1]; 100 uM): −30.25% | IL-2 [ ]pg/ml (3) ([1]; 100 uM): 1.97 pg/mL | IL-2 % Control (3) ([1]; 100 uM): 1.50% | cell viability (Jurkat cells): without affecting cell viability | inhibition of DAI in DSS-induced colitis (Balb/C mice): significant (P<0.01) inhibition | effect on DSS-induced weight loss (Balb/C mice; 5% DSS colitis, 30 mg/kg p.o. (FIG. 8)): ameliorated | mBSA paw swelling (CD-1 mice): 71%
